Test results reported in BindingDB's records for doi:10.1016/s0960-894x(00)00033-0 (Albany Molecular Research, 2000).
Where “and” joins values, the source holds several entries; their conditions need not be identical. Equal values may be shown once. Where a name gives a salt, the structure may show the parent alone.

Columns and labels:
[1] = Binding affinity against Opioid receptor delta 1 of calf cortex using […] as radioligand
[2] = Binding affinity against Opioid receptor kappa 1 of calf cortex using [3H]-U-69,593 as radioligand
[3] = as above; remark: listed apart in the source

With `COCCC1CC2CN3CCc4c([nH]c5ccccc45)C(C(=O)OC)(C2)C13` (stereo not drawn) [(-)-18-Methoxycoronaridine hydrochloride] the Ki [1] was 3.5 µM, the Ki [2] was 4.8 µM and the Ki [3] was 5.5 µM and 5.1 µM.
